System: Pb-Luc (Plasmodium berghei constitutively expressing luciferase) sporozoite infection of HC-04 3D cultures
Test: Drug activity on Pb-Luc sporozoite infection of HC-04 3D cultures (spheroids), luciferase readout
Assay type: cell-based
Method: FIG. 19—Analysis of drug activity in Pb infected-HC-04 spheroids. Dose-response curve of 3D cultures treated with ATQ. Results are expressed as percentage of infection normalized to the non-treated control. Results are represented as the mean of up to two independent experiments.
Initially, a preliminary assay employing reporter lines of Plasmodium berghei, constitutively expressing luciferase (Pb-Luc) or GFP (Pb-GFP), was performed to optimize the range of cell-to-sporozoite ratios and mode of contact. Pb-Luc parasites enable measuring infection by luminescence readings of cell lysates following addition of the luciferin substrate. Pb-GFP parasites enable measuring infection flow cytometry analysis. Such analyses allow measuring the percentage of invaded cells (% GFP-positive cells) and the development of the parasite inside the hepatic cells (GFP intensity). […]
HC-04 3D cultures were infected with Pb-Luc in the optimized conditions described above (cell density of 2.5×10^4 cell/well in a 1:2 ratio). The assessment of drug effect in the infection was performed by incubating the drug at a range of concentrations from 0.01 to 100 nM for 1 hour before incubation with the sporozoites and the readout was performed 48 hours after sporozoites addition, described as incubation regimen (A) in the detailed description of the invention section (FIG. 1). […]

With `O=C1C(O)=C([C@H]2CC[C@H](c3ccc(Cl)cc3)CC2)C(=O)c2ccccc21` [ATQ, Atovaquone] the IC50 (Plasmodium berghei, HC04, 2.5×10^4 cell/well, 1:2 cell-to-sporozoite ratio, drug added 1 hour before sporozoites, readout 48 hours after sporozoite addition (regimen A), read-out: half inhibitory concentration (IC50) for sporozoite infection) was 0.6 nM and the decrease of infection (highest concentrations tested (range 0.01 to 100 nM), readout 48 hours, normalized to non-treated control) was “more than 90%”.

From patent US20210130790A1, “Infected Cell Cultures” (Merck Patent GmbH, priority 2017, published 2021)
